The record followed here is patent US20150322083A1, “(THIENO[2,3-b][1,5]BENZOXAZEPIN-4-YL)PIPERAZIN-1-YL COMPOUNDS AS SELECTIVE 5-HT2A INVERSE AGONISTS” (Eli Lilly and Company, priority 2014, published 2015).

Structures are written as SMILES.

The target in one test is 5-HT5 (Homo sapiens, UniProt P47898). Nature of the test: 5-HT5 binding. The procedure:
(§1) Curves are evaluated using a 4-parameter logistic nonlinear equation to obtain the concentration of competitor causing 50% inhibition of radioligand binding (IC50). Equilibrium dissociation constants (Ki) are calculated according to the equation Ki=IC50/(1+L/Kd), where L equals the concentration of radioligand used in the experiment and Kd equals the equilibrium dissociation constant of the radioligand for the receptor, determined from standard saturation analysis or homologous competition experiments. Reported values for Ki, where n values are indicated, are shown as geometric mean±the standard error of the mean (SEM), with the number of replicate determinations indicated by n. Geometric means are calculated by the equation GeoMean=10̂(Average(log Ki 1+log Ki 2+ . . . log Ki n)/[…]).
(§2) Further, the compounds of the invention may be tested in binding assays and functional activity assays by well known methods for other physiologically important receptors such as, but not limited to, the hERG channel, other serotonin receptors (specifically 5-HT1B receptors, lack of agonist activity at 5-HT2B receptors, 5-HT2C, 5-HT5, 5-HT6, and 5-HT7 receptors), dopaminergic receptors (specifically D1, D2, and D3), H1 receptors, GABAA receptors, adrenergic receptors and monoamine transporters.

A further test deals with Dopamine D2 (Homo sapiens, UniProt P14416). Put plainly: Dopamine D2 binding. The procedure:
as §1, §2

The target of test [1] is T1, recombinant rat 5-HT2A receptor (Rattus norvegicus, UniProt P14842).
T1 construct: expressed in transfected cells; host or cells: AV12 cells, membranes
Nature of the test: 5-HT2A inverse agonism, [35S]GTPγS binding to AV12 membranes (rat receptor). The test is classed as biochemical. As to conditions: n=2, read-out: EC50, inhibition of intrinsic activity of the 5-HT2A receptor. The method, then: The inverse agonist activity of compounds of the present invention may be determined by literature recognized assay methods measuring [^35S]GTPγS binding to membranes transfected with 5-HT2A receptors in an in vitro activity assay essentially as described below.
Membranes are prepared from frozen pellets of whole AV12 cells expressing the human or rat 5-HT2A receptor. Cells are thawed on ice and homogenized in homogenization buffer (50 mM Tris-HCl, 0.5 mM EDTA, 1 tablet/100 mL of complete EDTA free protease inhibitor tablets (Roche Cat. No. 05 056 489 001), pH=7.4) with 20 strokes of a teflon-glass homogenizer attached to a motorized overhead stirrer. Centrifuge membranes at 1000 rpm (aprox. 150×g) for 15 min. at 4° C. […] The final supernatant is discarded and the pellet is resuspended in homogenization buffer and its protein content is determined by the method of Bradford using BSA as the standard. […]
Test compound is prepared from a 10 mM DMSO stock solution by serial dilution to provide a 10 point concentration response curve, with a final 1% DMSO concentration when added to the assay mixture. […] This mixture is incubated for 3 hr. with constant shaking at room temperature, centrifuged at 300 rpm for 1 min. with no brake and incubated for 3 more hr. before reading in a microplate scintillation counter.
A general note: GTPγS resists hydrolysis and so accumulates on activated G proteins.

The target in another test is Adrenergic alpha1A (Homo sapiens, UniProt P35348). Nature of the test: Adrenergic alpha1A binding. The method, then: as §1, §2
The next test addresses 5-HT1B receptors (Homo sapiens, UniProt P28222). Nature of the test: 5-HT1B binding. The method, then:
as §1, §2

The next test addresses Serotonin Transporter (Homo sapiens, UniProt P31645). Nature of the test: Serotonin transporter binding. The procedure:
as §1, §2

A further test deals with Dopamine D3 (Homo sapiens, UniProt P35462). Put plainly: Dopamine D3 binding. The procedure: as §1, §2
For test [2], the system named is DOI induced headshake response. Nature of the test: Inhibition of DOI induced headshake activity. Type of test: in vivo, male C57BL/6J mice. The following applies: mice, PO, 60 min. pre-treatment, DOI 3 mg/kg subcutaneously. The method, then: (see for example Bartoszyk G D, van Amsterdam C, Böttcher H, Seyfried C A. EMD 281014, a new selective serotonin 5-HT2A receptor antagonist. Eur J Pharmacol. 2003 473: 229-230.) This assay has also be used as an indicator of anti-psychotic therapeutic potential. Briefly, male C57BL/6J mice (20-25 g, Charles River) are housed in standard housing conditions (32 mice in a large IVC cage, 07.00 to 19.00 light phase, constant temperature (19-23° C.) and humidity (50%+/−10), ad lib food and water). Mice received either vehicle (0.25% Methyl cellulose), DOI (3 mg/kg in saline) or test compound at doses up to 10 mg/kg PO plus DOI (3 mg/kg in saline). Test compounds are individually evaluated at 4 doses with n=4 for each dose, together with vehicle and DOI+vehicle (n=8). After a test compound pre-treatment time of 60 min. the mice receive either vehicle (saline) or 3 mg/kg DOI dosed subcutaneously, and are then placed into clear perspex observation chambers. […] The data is analyzed using an ANOVA and post-hoc Dunnet's Test. The compounds of Example 1 and Example 2 are tested essentially as described and are found to inhibit the DOI induced headshake response with an approximate EC50 of 0.5 mg/kg for both compounds.

For a further test, the target named is 5-HT6 (Homo sapiens, UniProt P50406). Put plainly: 5-HT6 binding. The method, then:
as §1, §2

A further test deals with Adrenergic alpha1B (Homo sapiens, UniProt P35368). Nature of the test: Adrenergic alpha1B binding. The method, then: as §1, §2
Chain of Adrenergic alpha1B (P35368 whole entry): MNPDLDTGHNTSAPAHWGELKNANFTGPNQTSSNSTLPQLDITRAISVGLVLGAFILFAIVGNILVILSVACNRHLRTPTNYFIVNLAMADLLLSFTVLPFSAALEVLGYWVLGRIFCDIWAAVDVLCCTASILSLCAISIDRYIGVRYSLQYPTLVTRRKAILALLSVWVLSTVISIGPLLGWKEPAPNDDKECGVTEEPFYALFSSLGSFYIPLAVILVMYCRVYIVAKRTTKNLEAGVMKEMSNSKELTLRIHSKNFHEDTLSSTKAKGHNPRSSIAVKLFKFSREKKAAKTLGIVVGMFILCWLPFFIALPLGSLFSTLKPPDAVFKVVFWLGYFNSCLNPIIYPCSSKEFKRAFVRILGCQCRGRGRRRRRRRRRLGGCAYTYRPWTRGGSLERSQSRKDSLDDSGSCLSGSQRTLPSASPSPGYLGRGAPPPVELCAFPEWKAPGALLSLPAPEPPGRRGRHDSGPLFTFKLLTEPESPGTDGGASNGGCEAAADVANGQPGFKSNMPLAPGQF

Chain of 5-HT6 (P50406 whole entry, species assumed): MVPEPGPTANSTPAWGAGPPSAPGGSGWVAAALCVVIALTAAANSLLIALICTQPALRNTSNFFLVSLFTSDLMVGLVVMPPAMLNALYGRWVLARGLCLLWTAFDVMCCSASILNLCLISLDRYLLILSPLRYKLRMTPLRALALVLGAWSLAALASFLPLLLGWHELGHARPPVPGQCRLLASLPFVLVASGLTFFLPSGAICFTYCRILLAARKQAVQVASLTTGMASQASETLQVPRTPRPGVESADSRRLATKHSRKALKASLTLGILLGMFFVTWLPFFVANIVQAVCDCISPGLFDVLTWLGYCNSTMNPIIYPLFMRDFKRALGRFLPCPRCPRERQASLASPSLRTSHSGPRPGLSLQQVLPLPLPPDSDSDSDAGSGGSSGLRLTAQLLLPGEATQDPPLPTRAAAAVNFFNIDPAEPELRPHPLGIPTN
Chain of 5-HT1B receptors (P28222 whole entry): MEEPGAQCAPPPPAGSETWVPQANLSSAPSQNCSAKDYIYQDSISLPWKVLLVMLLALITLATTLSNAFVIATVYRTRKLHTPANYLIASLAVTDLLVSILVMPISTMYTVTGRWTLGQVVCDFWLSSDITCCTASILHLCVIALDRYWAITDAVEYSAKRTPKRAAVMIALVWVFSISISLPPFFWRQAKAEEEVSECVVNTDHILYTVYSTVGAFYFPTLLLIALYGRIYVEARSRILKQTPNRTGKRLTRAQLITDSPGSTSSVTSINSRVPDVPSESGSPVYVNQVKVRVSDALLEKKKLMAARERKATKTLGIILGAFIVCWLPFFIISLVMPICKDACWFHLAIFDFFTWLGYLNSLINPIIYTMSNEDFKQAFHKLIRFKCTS
Chain of 5-HT5 (P47898 whole entry, species assumed): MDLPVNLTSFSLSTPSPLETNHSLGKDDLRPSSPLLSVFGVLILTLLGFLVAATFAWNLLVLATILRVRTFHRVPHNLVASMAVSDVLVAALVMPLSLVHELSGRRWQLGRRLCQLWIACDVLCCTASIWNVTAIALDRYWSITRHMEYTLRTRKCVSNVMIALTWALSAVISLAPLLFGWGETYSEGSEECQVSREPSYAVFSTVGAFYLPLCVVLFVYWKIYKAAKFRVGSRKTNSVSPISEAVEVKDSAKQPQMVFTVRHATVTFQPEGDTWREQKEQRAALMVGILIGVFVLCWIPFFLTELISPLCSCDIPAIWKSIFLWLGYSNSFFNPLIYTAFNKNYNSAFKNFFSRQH
T1 sequence (P14842 whole entry): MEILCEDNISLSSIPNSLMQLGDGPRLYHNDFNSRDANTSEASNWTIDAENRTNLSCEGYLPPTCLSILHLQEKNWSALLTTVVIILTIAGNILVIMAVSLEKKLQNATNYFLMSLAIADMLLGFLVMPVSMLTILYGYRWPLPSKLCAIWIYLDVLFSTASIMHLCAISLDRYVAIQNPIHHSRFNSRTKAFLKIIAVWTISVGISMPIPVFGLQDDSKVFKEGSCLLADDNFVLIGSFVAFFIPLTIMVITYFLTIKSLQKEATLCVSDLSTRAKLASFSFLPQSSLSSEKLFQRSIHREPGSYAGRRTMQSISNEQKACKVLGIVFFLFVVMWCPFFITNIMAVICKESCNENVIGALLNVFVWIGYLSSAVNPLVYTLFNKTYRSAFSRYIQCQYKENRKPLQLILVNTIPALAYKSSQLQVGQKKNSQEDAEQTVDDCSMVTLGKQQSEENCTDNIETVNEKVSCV
Chain of Dopamine D2 (P14416 whole entry): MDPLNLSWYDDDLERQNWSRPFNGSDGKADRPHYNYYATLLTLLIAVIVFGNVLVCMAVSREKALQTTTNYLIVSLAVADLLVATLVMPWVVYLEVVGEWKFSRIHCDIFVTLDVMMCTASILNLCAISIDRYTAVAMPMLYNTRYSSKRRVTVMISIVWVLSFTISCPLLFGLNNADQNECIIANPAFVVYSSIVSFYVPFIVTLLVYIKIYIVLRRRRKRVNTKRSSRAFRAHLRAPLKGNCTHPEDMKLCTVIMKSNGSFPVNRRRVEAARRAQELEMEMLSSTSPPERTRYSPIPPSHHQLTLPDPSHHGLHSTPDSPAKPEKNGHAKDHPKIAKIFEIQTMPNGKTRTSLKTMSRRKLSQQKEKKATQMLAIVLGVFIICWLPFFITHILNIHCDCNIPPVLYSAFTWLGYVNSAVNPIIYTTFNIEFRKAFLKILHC
Chain of Serotonin Transporter (P31645 whole entry): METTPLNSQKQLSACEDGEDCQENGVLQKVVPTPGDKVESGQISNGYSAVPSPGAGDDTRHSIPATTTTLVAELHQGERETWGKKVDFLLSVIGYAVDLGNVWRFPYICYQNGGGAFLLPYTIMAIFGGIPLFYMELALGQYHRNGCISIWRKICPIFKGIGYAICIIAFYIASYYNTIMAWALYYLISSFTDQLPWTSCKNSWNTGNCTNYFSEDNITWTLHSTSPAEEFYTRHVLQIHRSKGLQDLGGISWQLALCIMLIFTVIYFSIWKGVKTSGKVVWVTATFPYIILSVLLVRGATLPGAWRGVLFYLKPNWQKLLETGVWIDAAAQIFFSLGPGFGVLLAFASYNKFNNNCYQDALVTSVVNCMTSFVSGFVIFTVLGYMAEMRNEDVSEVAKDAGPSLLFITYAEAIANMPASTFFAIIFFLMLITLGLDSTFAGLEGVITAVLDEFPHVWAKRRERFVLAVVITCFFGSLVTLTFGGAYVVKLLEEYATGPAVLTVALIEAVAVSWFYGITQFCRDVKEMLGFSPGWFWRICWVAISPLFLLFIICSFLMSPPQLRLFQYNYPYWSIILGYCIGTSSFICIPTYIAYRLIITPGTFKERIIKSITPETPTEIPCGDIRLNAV
Chain of Dopamine D3 (P35462 whole entry): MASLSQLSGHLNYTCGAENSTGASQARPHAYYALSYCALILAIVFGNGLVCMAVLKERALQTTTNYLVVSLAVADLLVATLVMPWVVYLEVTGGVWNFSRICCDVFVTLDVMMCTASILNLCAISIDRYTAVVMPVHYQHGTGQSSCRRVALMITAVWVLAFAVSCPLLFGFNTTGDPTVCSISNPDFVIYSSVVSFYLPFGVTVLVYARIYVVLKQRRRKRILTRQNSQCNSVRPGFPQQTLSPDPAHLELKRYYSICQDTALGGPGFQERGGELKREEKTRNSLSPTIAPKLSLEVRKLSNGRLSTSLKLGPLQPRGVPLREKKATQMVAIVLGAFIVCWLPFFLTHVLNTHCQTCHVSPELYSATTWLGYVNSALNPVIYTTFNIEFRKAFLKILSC
Chain of Adrenergic alpha1A (P35348 whole entry): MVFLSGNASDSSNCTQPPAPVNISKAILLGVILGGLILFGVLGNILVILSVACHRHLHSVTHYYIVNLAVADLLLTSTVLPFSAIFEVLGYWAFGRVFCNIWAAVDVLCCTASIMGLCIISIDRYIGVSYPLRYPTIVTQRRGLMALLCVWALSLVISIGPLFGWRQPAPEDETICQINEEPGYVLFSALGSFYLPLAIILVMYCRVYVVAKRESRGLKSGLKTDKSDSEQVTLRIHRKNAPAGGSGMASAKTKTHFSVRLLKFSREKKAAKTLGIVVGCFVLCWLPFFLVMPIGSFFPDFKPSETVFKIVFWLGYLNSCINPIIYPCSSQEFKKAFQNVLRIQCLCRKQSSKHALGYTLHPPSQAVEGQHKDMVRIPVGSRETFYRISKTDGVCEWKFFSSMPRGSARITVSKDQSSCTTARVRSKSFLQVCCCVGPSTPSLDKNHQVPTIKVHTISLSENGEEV

One may read the Ki as the equilibrium dissociation constant of an inhibitor or competing ligand from its target. Low readings indicate higher affinity, high ones lower affinity. Usually EC50 stands for the concentration that produces a half-maximal response. Turning to `Cc1ccc2c(c1)Oc1sc(SC(C)C)cc1C(N1CCN(CC(C)(C)C(=O)O)CC1)=N2` [Example 1, 3-[4-(2-isopropylsulfanyl-8-methyl-thieno[2,3-b][1,5]benzoxazepin-4-yl)piperazin-1-yl]-2,2-dimethyl-propanoic acid], the Ki was 6.71 µM at 5-HT5; more than 7.66 µM at Dopamine D2; 4.45 µM at Adrenergic alpha1A; more than 9.59 µM on 5-HT1B receptors; more than 0.521 µM on Serotonin Transporter; more than 5.47 µM on Dopamine D3. For the same compound, the values for the Ki at 5-HT6 and on Adrenergic alpha1B were 1.13 µM and more than 15.8 µM, respectively. In [1], the EC50 came out at 0.103 µM. In addition, the “approximate EC50, inhibition of DOI induced headshake response” value in test [2] was approximately 0.5 mg/kg.
